Target: T1, hQ23 (HEK-293 cell line stably transfected with one of the members of the KCNQ family) (Homo sapiens, UniProt O43525+O43526)
T1 construct: expressed in transfected cells; host or cells: HEK-293, stably transfected
Assay: Thallium flux assay for KCNQ channel blockers (FLIPR, BTC dye)
Assay type: cell-based
Details: Table 2; thallium flux, HEK-293
Experimental: Thallium Flux Assay for KCNQ channel blockers. Approximately 20,000 cells/well of an HEK-293 cell line stably transfected with one of the members of the KCNQ family were plated into clear-bottom, black-walled, poly-D-lysine coated, 384 well assay plates in 20 μl/well of low chloride plating medium. Low chloride plating medium was composed of the following: sodium gluconate, 109 mM; potassium gluconate, 5.4 mM; hemi-calcium gluconate, 3.6 mM; magnesium sulfate, 0.8 mM; sodium bicarbonate, 26.2 mM; sodium phosphate monobasic, 1.2 mM; glutamine, 2 mM; glucose, 5 mM; HEPES (pH 7.3) 10 mM, 10× concentration of vitamins (Gibco/LifeTechnologies catalog #11120-052) and 1× concentration of amino acids (Gibco/LifeTechnologies catalog #11130-051).
Following overnight incubation in a 5% CO2 incubator at 37° C., the cells in the plates were loaded with 20 μl/well of a dye loading solution containing the acetomethoxy ester of the thallium-sensitive fluorescent dye BTC, BTC-AM (2 μM) and pluronic acid (0.02% w/v) in chloride free assay buffer. Chloride free assay buffer was composed of the following: sodium gluconate, 140 mM; potassium gluconate, 2.5 mM; hemi-calcium gluconate, 6 mM; hemi-magnesium gluconate, 2 mM; glucose, 5 mM; HEPES (pH 7.3), 10 mM.
Following incubation in the dye loading solution for from 45–90 min at room temperature, the dye loading solution was removed by aspiration and replaced with 40 μl/well of chloride free assay buffer.
Prior to addition to cell plates, test compound and standard compounds were dissolved in DMSO to 3 mM concentration. Compounds were then diluted from the 3 mM stock to 100-fold over the final assay concentration in DMSO. Finally, compounds in DMSO were diluted from 100-fold over the final assay concentration to 5-fold over the final assay concentration in chloride free assay buffer.
Ten μl/well of compounds at 5-fold over the final assay concentration were then added to the cell plates. This represents a 1:5 dilution, yielding the final test concentration. The wells used for test compounds were A1–P20. Wells A21–P22 contained a standard ‘blocker’ and a fully efficacious concentration (positive control). Wells A23–P24 contained chloride free assay buffer containing 1% DMSO (negative control).
Following addition of test compounds, the plates were loaded onto the Molecular Devices FLIPR. The 488 nm line of the argon laser was used to excite the BTC and the emission filter was a 540(+/−30) nm. Images were collected at 1 Hz. Ten seconds of baseline were collected and then the FLIPR was used to add 13 μl/well of a stimulus buffer composed of Tl2SO4, 25 mM; sodium gluconate, 30 mM; potassium sulfate, 50 mM; hemi-calcium gluconate, 6 mM; hemi-magnesium gluconate, 2 mM; glucose, 5 mM; HEPES (pH 7.3), 10 mM in chloride free assay buffer. Images were collected for an additional 60 seconds.
For data analysis, the amplitude of the average of the negative controls was subtracted from all wells. The amplitudes of the test compounds were then compared to the value of four standard deviations of the negative control wells. The lowest concentration of a test compound sufficient to generate a signal amplitude greater than or equal to four standard deviations from the amplitude of the negative controls was defined as the minimal active concentration.
For generating IC50 values, compounds were serially diluted in 1:3 volume increments to produce a 10 point concentration series. IC50 values were calculated by fitting the resulting amplitudes to a single-site logistic equation. IC50 was defined as the concentration of test compound required to yield 50% of the response of the positive control.

T1 sequence (O43526 whole entry): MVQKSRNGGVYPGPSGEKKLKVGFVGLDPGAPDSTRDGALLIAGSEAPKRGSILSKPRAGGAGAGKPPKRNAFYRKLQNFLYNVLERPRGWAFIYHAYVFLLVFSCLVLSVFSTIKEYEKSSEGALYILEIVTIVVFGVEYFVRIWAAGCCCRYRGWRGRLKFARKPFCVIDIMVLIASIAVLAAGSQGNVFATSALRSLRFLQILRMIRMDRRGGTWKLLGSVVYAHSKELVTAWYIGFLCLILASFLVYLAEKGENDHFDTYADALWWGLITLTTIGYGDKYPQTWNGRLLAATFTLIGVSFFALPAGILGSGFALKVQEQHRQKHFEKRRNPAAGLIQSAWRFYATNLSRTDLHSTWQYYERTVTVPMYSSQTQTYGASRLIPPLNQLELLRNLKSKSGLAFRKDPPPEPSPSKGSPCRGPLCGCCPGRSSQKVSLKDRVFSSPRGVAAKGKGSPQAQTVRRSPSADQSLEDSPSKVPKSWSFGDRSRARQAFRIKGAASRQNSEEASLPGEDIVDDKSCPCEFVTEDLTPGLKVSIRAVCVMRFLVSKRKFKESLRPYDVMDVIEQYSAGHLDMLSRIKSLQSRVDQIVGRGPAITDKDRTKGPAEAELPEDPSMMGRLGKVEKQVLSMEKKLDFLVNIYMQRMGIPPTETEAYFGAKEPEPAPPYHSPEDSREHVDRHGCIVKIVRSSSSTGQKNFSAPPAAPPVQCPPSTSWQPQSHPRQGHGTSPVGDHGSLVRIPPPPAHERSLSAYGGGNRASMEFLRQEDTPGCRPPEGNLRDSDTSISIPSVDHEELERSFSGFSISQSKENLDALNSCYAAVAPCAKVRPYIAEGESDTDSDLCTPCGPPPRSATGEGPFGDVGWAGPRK
T1 sequence (O43525 whole entry): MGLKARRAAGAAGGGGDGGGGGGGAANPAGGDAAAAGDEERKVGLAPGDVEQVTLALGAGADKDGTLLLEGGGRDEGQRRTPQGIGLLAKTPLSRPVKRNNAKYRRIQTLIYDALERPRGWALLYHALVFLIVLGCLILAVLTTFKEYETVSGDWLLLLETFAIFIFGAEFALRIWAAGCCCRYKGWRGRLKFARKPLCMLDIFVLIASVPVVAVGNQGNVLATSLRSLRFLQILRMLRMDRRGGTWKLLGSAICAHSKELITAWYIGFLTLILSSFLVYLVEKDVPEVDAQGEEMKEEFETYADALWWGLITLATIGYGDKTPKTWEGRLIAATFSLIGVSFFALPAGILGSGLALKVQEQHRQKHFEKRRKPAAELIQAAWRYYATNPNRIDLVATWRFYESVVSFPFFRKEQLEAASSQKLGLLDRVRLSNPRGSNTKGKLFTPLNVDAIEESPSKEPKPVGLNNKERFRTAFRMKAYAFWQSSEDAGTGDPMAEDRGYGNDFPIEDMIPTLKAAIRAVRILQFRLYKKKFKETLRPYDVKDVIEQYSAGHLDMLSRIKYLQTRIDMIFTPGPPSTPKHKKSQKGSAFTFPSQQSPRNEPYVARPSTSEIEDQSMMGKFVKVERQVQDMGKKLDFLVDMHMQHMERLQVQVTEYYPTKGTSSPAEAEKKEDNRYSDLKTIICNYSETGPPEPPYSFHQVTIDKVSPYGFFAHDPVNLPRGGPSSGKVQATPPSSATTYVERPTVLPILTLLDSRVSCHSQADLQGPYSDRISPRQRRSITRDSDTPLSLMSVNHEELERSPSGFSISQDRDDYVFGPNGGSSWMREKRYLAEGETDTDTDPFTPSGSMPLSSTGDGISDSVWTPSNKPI

| Structure (SMILES) | EC50 |
| --- | --- |
| CCN(Cc1ccccc1)C(=O)c1cnc(N2CCC(C)CC2)nc1C1(c2ccccc2)CC1 [Example 31, 5-pyrimidinecarboxamide, N-ethyl-2-(4-methyl-1-piperidinyl)-4-(1-phenylcyclopropyl)-N-(phenylmethyl)-] | 0.475 µM |
| CC1CCN(c2ncc(C(=O)NCc3ccc(F)cc3F)c(C3(c4ccccc4)CC3)n2)CC1 [Example 43, 5-pyrimidinecarboxamide, N-[(2,4-difluorophenyl)methyl]-2-(4-methyl-1-piperidinyl)-4-(1-phenylcyclopropyl)-] | 0.919 µM |

Same assay, conditions: Table 3; thallium flux, HEK-293

| Structure (SMILES) | EC50 |
| --- | --- |
| CC1CCCN(c2ncc(C(=O)NCc3cc(F)cc(C(F)(F)F)c3)c(C3(c4ccc(Cl)cc4)CCC3)n2)C1 (stereo not drawn) [Example 66, 5-pyrimidinecarboxamide, 4-[1-(4-chlorophenyl)cyclobutyl]-N-[[3-fluoro-5-(trifluoromethyl)phenyl]methyl]-2-(3-methyl-1-piperidinyl)-] | 0.01 µM |
| CC1CCCN(c2ncc(C(=O)NC(C)c3ccc(F)cc3)c(C3(c4ccc(Cl)cc4)CCC3)n2)C1 (stereo not drawn) [Example 68, 5-pyrimidinecarboxamide, 4-[1-(4-chlorophenyl)cyclobutyl]-N-[1-(4-fluorophenyl)ethyl]-2-(3-methyl-1-piperidinyl)-] | 0.128 µM |

Same assay, conditions: hQ23 cells, thallium flux

| Structure (SMILES) | EC50 |
| --- | --- |
| CCN(Cc1ccccc1)C(=O)c1cnc(N2CCC(C)CC2)nc1C1(c2ccc(F)cc2)CCCC1 [Example 230, 5-pyrimidinecarboxamide, N-ethyl-4-[1-(4-fluorophenyl)cyclopentyl]-2-(4-methyl-1-piperidinyl)-N-(phenylmethyl)-] | 0.168 µM |
| CC1CCN(c2ncc(C(=O)N3CCc4ccccc4C3)c(C3(c4ccc(F)cc4)CCCC3)n2)CC1 [Example 212, isoquinoline, 2-[[4-[1-(4-fluorophenyl)cyclopentyl]-2-(4-methyl-1-piperidinyl)-5-pyrimidinyl]carbonyl]-1,2,3,4-tetrahydro-] | 0.237 µM |
| CC1CCCN(c2ncc(C(=O)NCc3ccc(Cl)cc3Cl)c(C3(c4ccccc4)CCCC3)n2)C1 (stereo not drawn) [Example 112, 5-pyrimidinecarboxamide, N-[(2,4-dichlorophenyl)methyl]-2-(3-methyl-1-piperidinyl)-4-(1-phenylcyclopentyl)-] | 0.064 µM |
| O=C(NCc1cc(F)cc(C(F)(F)F)c1)c1cnc(N2CCCC2)nc1C1(c2ccc(Cl)cc2)CCCC1 [Example 191, 5-pyrimidinecarboxamide, 4-[1-(4-chlorophenyl)cyclopentyl]-N-[[3-fluoro-5-(trifluoromethyl)phenyl]methyl]-2-(1-pyrrolidinyl)-] | 0.032 µM |
| CC1CCC(Nc2ncc(C(=O)NCc3cccc4ccccc34)c(C3(c4ccc(Cl)cc4)CCCC3)n2)CC1 (stereo not drawn) [Example 166, 5-pyrimidinecarboxamide, 4-[1-(4-chlorophenyl)cyclopentyl]-2-[(4-methylcyclohexyl)amino]-N-(1-naphthalenylmethyl)-] | 0.016 µM |
| CN1CCN(c2ncc(C(=O)NCc3ccc(Cl)c(Cl)c3)c(C3(c4ccc(Cl)cc4)CCCC3)n2)CC1 [Example 173, 5-pyrimidinecarboxamide, 4-[1-(4-chlorophenyl)cyclopentyl]-N-[(3,4-dichlorophenyl)methyl]-2-(4-methyl-1-piperazinyl)-] | 0.82 µM |
| CC(NC(=O)c1cnc(NC2CC2)nc1C1(c2ccc(Cl)cc2)CCCC1)c1cccc2ccccc12 (stereo not drawn) [Example 157, 5-pyrimidinecarboxamide, 4-[1-(4-chlorophenyl)cyclopentyl]-2-(cyclopropylamino)-N-[1-(1-naphthalenyl)ethyl]-] | 0.195 µM |
| CCC(C)Nc1ncc(C(=O)NC(C)c2ccc(F)cc2)c(C2(c3ccccc3)CCCC2)n1 (stereo not drawn) [Example 135, 5-pyrimidinecarboxamide, N-[1-(4-fluorophenyl)ethyl]-2-[(1-methylpropyl)amino]-4-(1-phenylcyclopentyl)-] | 0.029 µM |
| CC1CCCN(c2ncc(C(=O)NCc3ccc4c(c3)OCO4)c(C3(c4ccc(Cl)cc4)CCCC3)n2)C1 (stereo not drawn) [Example 153, 5-pyrimidinecarboxamide, N-(1,3-benzodioxol-5-ylmethyl)-4-[1-(4-chlorophenyl)cyclopentyl]-2-(3-methyl-1-piperidinyl)-] | 0.01 µM |
| CC1CCC(Nc2ncc(C(=O)NC(C)c3ccc(F)cc3)c(C3(c4ccc(Cl)cc4)CCCC3)n2)CC1 (stereo not drawn) [Example 197, 5-pyrimidinecarboxamide, 4-[1-(4-chlorophenyl)cyclopentyl]-N-[1-(4-fluorophenyl)ethyl]-2-[(4-methylcyclohexyl)amino]-] | 0.233 µM |
| CCC(C)Nc1ncc(C(=O)N(CC)C2CCCCC2)c(C2(c3ccc(F)cc3)CCCC2)n1 (stereo not drawn) [Example 216, 5-pyrimidinecarboxamide, N-cyclohexyl-N-ethyl-4-[1-(4-fluorophenyl)cyclopentyl]-2-[(1-methylpropyl)amino]-] | 0.821 µM |
| O=C(NCc1ccc2c(c1)OCO2)c1cnc(NC2CC2)nc1C1(c2ccc(Cl)cc2)CCCC1 [Example 150, 5-pyrimidinecarboxamide, N-(1,3-benzodioxol-5-ylmethyl)-4-[1-(4-chlorophenyl)cyclopentyl]-2-(cyclopropylamino)-] | 0.717 µM |

Same assay, conditions: hQ23 cells, thallium flux assay

| Structure (SMILES) | EC50 |
| --- | --- |
| CC(NC(=O)c1cnc(N2CCN(C)CC2)nc1C1(c2ccc(F)cc2)CCCC1)c1ccc(F)cc1 (stereo not drawn) [Example 283, 5-pyrimidinecarboxamide, 4-[1-(4-fluorophenyl)cyclopentyl]-N-[1-(4-fluorophenyl)ethyl]-2-(4-methyl-1-piperazinyl)-] | 0.752 µM |
| CC(NC(=O)c1cnc(NC2CC2)nc1C1(c2ccc(F)cc2)CCCC1)c1cccc2ccccc12 (stereo not drawn) [Example 240, 5-pyrimidinecarboxamide, 2-(cyclopropylamino)-4-[1-(4-fluorophenyl)cyclopentyl]-N-[1-(1-naphthalenyl)ethyl]-] | 0.507 µM |
| O=C(NCc1ccc2c(c1)OCO2)c1cnc(N2CCCC2)nc1C1(c2ccc(F)cc2)CCCC1 [Example 235, 5-pyrimidinecarboxamide, N-(1,3-benzodioxol-5-ylmethyl)-4-[1-(4-fluorophenyl)cyclopentyl]-2-(1-pyrrolidinyl)-] | 0.214 µM |
| CC1CCC(Nc2ncc(C(=O)NCc3cc(F)cc(C(F)(F)F)c3)c(C3(c4ccc(F)cc4)CCCC3)n2)CC1 (stereo not drawn) [Example 274, 5-pyrimidinecarboxamide, 4-[1-(4-fluorophenyl)cyclopentyl]-N-[[3-fluoro-5-(trifluoromethyl)phenyl]methyl]-2-[(4-methylcyclohexyl)amino]-] | 0.029 µM |
| CC1CCN(c2ncc(C(=O)NCc3ccc(F)cc3F)c(C3(c4ccc(F)cc4)CCCC3)n2)CC1 [Example 270, 5-pyrimidinecarboxamide, N-[(2,4-difluorophenyl)methyl]-4-[1-(4-fluorophenyl)cyclopentyl]-2-(4-methyl-1-piperidinyl)-] | 0.142 µM |
| CC1CCCN(c2ncc(C(=O)NCc3ccc(Cl)c(Cl)c3)c(C3(c4ccc(F)cc4)CCCC3)n2)C1 (stereo not drawn) [Example 255, 5-pyrimidinecarboxamide, N-[(3,4-dichlorophenyl)methyl]-4-[1-(4-fluorophenyl)cyclopentyl]-2-(3-methyl-1-piperidinyl)-] | 0.01 µM |
| CC1CCCN(c2ncc(C(=O)NCc3ccc4c(c3)OCO4)c(C3(c4ccc(F)cc4)CCCC3)n2)C1 (stereo not drawn) [Example 236, 5-pyrimidinecarboxamide, N-(1,3-benzodioxol-5-ylmethyl)-4-[1-(4-fluorophenyl)cyclopentyl]-2-(3-methyl-1-piperidinyl)-] | 0.039 µM |
| CCC(C)Nc1ncc(C(=O)NCc2ccc3c(c2)OCO3)c(C2(c3ccc(F)cc3)CCCC2)n1 (stereo not drawn) [Example 238, 5-pyrimidinecarboxamide, N-(1,3-benzodioxol-5-ylmethyl)-4-[1-(4-fluorophenyl)cyclopentyl]-2-[(1-methylpropyl)amino]-] | 0.344 µM |
